Laboratory results from paper PMC12844208, “Screening for Peptides to Bind and Functionally Inhibit SARS-CoV-2 Fusion Peptide Using Mirrored Combinatorial Phage Display and Human Proteomic Phage Display” (Molecules, 2026).
“Also recorded” adds a separate entry of the source. Ends that are not written are not given here.

Experiments:
[1] = test system: SARS-CoV-2 infection of Vero-E6/TMPRSS2 cells; assay: microbe, parasite or virus in culture; type: cell-based
[2] = test system: D-FP12_biotin (SARS-CoV-2 spike fusion peptide synthesised as a D-peptide); type: binding
[3] = test system: anti-Borrelia burgdorferi immune sera; settings: occurrences in the anti-Borrelia burgdorferi immune sera NEB PhD7 screening dataset; cited from earlier work
Text: Table 2 Ten enriched PhD7-mer L-peptides tested in antiviral assays as D-peptides. | column: Occurrence in an Unrelated Screen

FP = assay: Preliminary screen of FP versus a pan-coronaviral phage display library; set-up: species or system SARS-CoV-2; settings: lack of binding to homologous regions of other coronaviruses placed the finding in doubt
Protocol: Proteomic phage display of peptide regions of proteins is also possible for viral as well as host proteins, and a preliminary screen of FP versus a pan-coronaviral phage display library of regions of coronaviral proteins was carried out following the methods previously outlined, which only identified a single peptide, despite a large amount of sequencing data obtained. This 39mer […] peptide was derived from the nsp3 (protease-encoding) protein of coronavirus 229E comprising the last four residues of the loop between Y2 and Y3 regions and the first 35 residues of the Y3 region. Y3 plays a role in double-membrane vesicle formation, but the lack of binding to homologous regions of other coronaviruses in the library placed the finding in doubt.

Compound	Read Count [2]	further results
RRRRRRRRGPDRNFRLSEHRQALA-NH2 [OTUD1-derived peptide]		inhibition of SARS-CoV-2 infection of Vero-E6/TMPRSS2 cells (in words) [1]: no evidence for any marked impact; also recorded: failed to inhibit viral infection
WSRGYTG	3676	
SLTGTRF	11,170	
LEVYYET	3570	
RDHYMMF	7135	
HFARHLA	7063	
WSLGYTG	6,280,489	Occurrence in an Unrelated Screen [3]: 4
LTSLPRN	4284	
NTWPYKP	264,257	Occurrence in an Unrelated Screen [3]: 1
ETSTMYP	3552	effect on SARS-CoV-2 infection (number of infected cells compared to vehicle controls) [1]: exception
LSTLSVDFNGVLHKAYIDVLRNSFGKDLNANMSLAECKR		peptide identified as binding FP in the pan-coronaviral library (FP): identified
HDTTLIT	169,773	
CCC(CC)COC(=O)[C@H](C)N[P@](=O)(OC[C@H]1O[C@@](C#N)(c2ccc3c(N)ncnn23)[C@H](O)[C@@H]1O)Oc1ccccc1 [Remdesivir, reference compound]		inhibition of infection (in words) [1]: strongly inhibited; inhibition at 5 µM ([1]; Severe acute respiratory syndrome coronavirus 2, VeroE6/TMPRSS2, read-out: inhibition of infection): 95%
